According to US20190085289A1, “COMPOSITIONS AND METHODS FOR PATHOGEN INACTIVATION OF PLATELETS” (Cerus Corporation, priority 2017, published 2019):

How the values were obtained:
[1] = Stability of S-59 in InterSol PAS under ambient light (HPLC); assay type: physicochemical; settings: S-59 230 μM in InterSol PAS, room temp
Protocol: Initial studies evaluated stability of the pathogen inactivation compound amotosalen (S-59) that was formulated in a platelet additive solution (PAS). A 230 μM solution of psoralen compound S-59 (Irsch et al., Transfus Med Hemother, 38: 19-31 (2011)) was prepared in the commercially available PAS solution InterSol® (Fenwal Inc.) and maintained at room temperature under ambient light conditions. HPLC analysis was performed on samples at times listed in Table 1 for both S-59 and photoproducts. […] S-59 data are shown as both concentration (μM), as well as peak area (S-59 UV) for relative comparison to any photoproducts detected with HPLC (Table 1). Peak D and Peak E photoproducts also were observed by 22 hr and 72 hr, respectively, as well as process impurity decomposition product 4′-HMT, with peak area values indicated (Table 1).

[2] = Stability of S-59 in InterSol PAS protected from ambient light (HPLC); assay type: physicochemical; settings: S-59 230 μM in InterSol PAS, room temp, protected from light
Protocol: Additional studies evaluated stability of the S-59 (amotosalen) pathogen inactivation compound formulated in a platelet additive solution (PAS), but protected from ambient light exposure. A 230 μM solution of S-59 was prepared in the commercially available PAS solution InterSol® (Fenwal Inc.) and maintained at room temperature protected from ambient light conditions. HPLC analysis was performed on samples at times listed in Table 2 for both S-59 and photoproducts.

## Cc1oc2c(C)c3oc(=O)cc(C)c3cc2c1CO [4′-HMT]
[1]; 5 hr
  4′-HMT UV peak area (HPLC): 5.624
[1]; 6 hr
  4′-HMT UV peak area (HPLC): 5.090
[1]; 22 hr
  4′-HMT UV peak area (HPLC): 5.125
[1]; 30 hr
  4′-HMT UV peak area (HPLC): 5.334
[1]; 47 hr
  4′-HMT UV peak area (HPLC): 4.954
[1]; 56 hr
  4′-HMT UV peak area (HPLC): 4.742
[1]; 72 hr
  4′-HMT UV peak area (HPLC): 4.839
[1]; 78 hr
  4′-HMT UV peak area (HPLC): 4.793
[1]; T 0
  4′-HMT UV peak area (HPLC): 4.924
[2]; 5.5 hr
  4′-HMT UV peak area (HPLC): 3.7162
[2]; 21.5 hr
  4′-HMT UV peak area (HPLC): 4.3525
[2]; 28.5 hr
  4′-HMT UV peak area (HPLC): 3.8628
[2]; 44 hr
  4′-HMT UV peak area (HPLC): 4.0199
[2]; 45.5 hr
  4′-HMT UV peak area (HPLC): 4.4036
[2]; 53 hr
  4′-HMT UV peak area (HPLC): 4.0582
[2]; 77 hr
  4′-HMT UV peak area (HPLC): 4.4268
[2]; T 0
  4′-HMT UV peak area (HPLC): 3.8849
